These results are taken from paper PMC5669356, “Continuous degradation of maltose by enzyme entrapment technology using calcium alginate beads as a matrix” (Biochemistry and Biophysics Reports, 2015).

The test system of the assay is maltase. As to the kind of experiment: GOD-PAP glucose release assay, Lineweaver-Burk plot. Format: biochemical, Bacillus licheniformis. To be noted: free (soluble) enzyme, partially purified; maltose 2.5-50 mM; pH and temperature of the kinetics not stated.

In the case of `OC[C@H]1O[C@H](O[C@H]2[C@H](O)[C@@H](O)C(O)O[C@@H]2CO)[C@H](O)[C@@H](O)[C@@H]1O` (stereo partly shown) [maltose], the Km is 1.71 mM ml^−1.
